In brackets after ≈: the same amount, converted by molar mass.
What was measured:
Escherichia coli [1] = experiment: Antibacterial activity against Escherichia coli ATCC 25922 assessed as bacterial growth inhibition in presence of CAMHB medium by broth microdilution method; format: functional
Acinetobacter baumannii [2] = experiment: Antibacterial activity against multi-drug resistant Acinetobacter baumannii 4 clinical isolate assessed as bacterial growth inhibition in presence of CAMHB medium by broth microdilution method; format: functional
[3] = Cytotoxicity against green monkey Vero cells incubated for 48 hrs by CCK-8 assay; format: toxicity, cell-based; settings: green monkey (Chlorocebus sabaeus)
Escherichia coli [4] = experiment: Antibacterial activity against multi-drug resistant Escherichia coli 4 clinical isolate assessed as bacterial growth inhibition in presence of CAMHB medium by broth microdilution method; format: functional
Acinetobacter baumannii [5] = experiment: Antibacterial activity against Acinetobacter baumannii ATCC 19606 assessed as bacterial growth inhibition in presence of CAMHB medium by broth microdilution method; format: functional
Escherichia coli [6] = experiment: Antibacterial activity against multi-drug resistant Escherichia coli 1 clinical isolate assessed as bacterial growth inhibition in presence of CAMHB medium by broth microdilution method; format: functional
Acinetobacter baumannii [7] = experiment: Antibacterial activity against multi-drug resistant Acinetobacter baumannii 1 clinical isolate assessed as bacterial growth inhibition in presence of CAMHB medium by broth microdilution method; format: functional
Klebsiella pneumoniae = experiment: Antibacterial activity against Klebsiella pneumoniae ATCC […] assessed as bacterial growth inhibition in presence of CAMHB medium by broth microdilution method; format: functional
Escherichia coli [8] = experiment: Antibacterial activity against multi-drug resistant Escherichia coli 2 clinical isolate assessed as bacterial growth inhibition in presence of CAMHB medium by broth microdilution method; format: functional
Acinetobacter baumannii [9] = experiment: Antibacterial activity against multi-drug resistant Acinetobacter baumannii 3 clinical isolate assessed as bacterial growth inhibition in presence of CAMHB medium by broth microdilution method; format: functional
Escherichia coli [10] = experiment: Antibacterial activity against multi-drug resistant Escherichia coli 5 clinical isolate assessed as bacterial growth inhibition in presence of CAMHB medium by broth microdilution method; format: functional
Acinetobacter baumannii [11] = experiment: Antibacterial activity against multi-drug resistant Acinetobacter baumannii 2 clinical isolate assessed as bacterial growth inhibition in presence of CAMHB medium by broth microdilution method; format: functional
Escherichia coli [12] = experiment: Antibacterial activity against ESBL(+) producing Escherichia coli ATCC 35218 assessed as bacterial growth inhibition in presence of CAMHB medium by broth microdilution method; format: functional
Escherichia coli [13] = experiment: Antibacterial activity against multi-drug resistant Escherichia coli 3 clinical isolate assessed as bacterial growth inhibition in presence of CAMHB medium by broth microdilution method; format: functional
Acinetobacter baumannii [14] = experiment: Antibacterial activity against multi-drug resistant Acinetobacter baumannii 5 clinical isolate assessed as bacterial growth inhibition in presence of CAMHB medium by broth microdilution method; format: functional
[15] = Cytotoxicity against dog MDCK cells incubated for 48 hrs by CCK-8 assay; format: toxicity, cell-based; settings: dog (Canis lupus familiaris)
Pseudomonas aeruginosa = experiment: Antibacterial activity against Pseudomonas aeruginosa PAO1 assessed as bacterial growth inhibition in presence of CAMHB medium by broth microdilution method; format: functional

Row | Structure (SMILES) | MIC (Escherichia coli [1]) | MIC (Acinetobacter baumannii [5]) | MIC (Klebsiella pneumoniae) | MIC (Pseudomonas aeruginosa) | IC50 at 48 h [3] | IC50 at 48 h [15] | further results
1 | FC(F)(F)c1ccc(CN2COc3c(cc(Br)c4cccnc34)C2)cc1 | 50 µg/mL |  |  |  |  |  | 
2 | Fc1ccc(CN2COc3c(cc(Cl)c4cccnc34)C2)c(F)c1 | 6.25 µg/mL | 3.12 µg/mL | 50 µg/mL | 100 µg/mL | > 50 µg/mL | 34.2 µg/mL (≈ 98.6 µM) | MIC (Acinetobacter baumannii [2]): 25 µg/mL; MIC (Escherichia coli [4]): 50 µg/mL; MIC (Escherichia coli [6]): 50 µg/mL; MIC (Acinetobacter baumannii [7]): 50 µg/mL; MIC (Escherichia coli [8]): 50 µg/mL; MIC (Acinetobacter baumannii [9]): 50 µg/mL; MIC (Escherichia coli [10]): 50 µg/mL; MIC (Acinetobacter baumannii [11]): 25 µg/mL; MIC (Escherichia coli [12]): > 100 µg/mL; MIC (Escherichia coli [13]): 50 µg/mL; MIC (Acinetobacter baumannii [14]): 50 µg/mL
3 | Brc1cc2c(c3ncccc13)OCN(CCOc1ccccc1)C2 | 25 µg/mL |  |  |  |  |  | 
4 | Fc1cc2c(c3ncccc13)OCN(CCc1ccccc1)C2 | 6.25 µg/mL | 6.25 µg/mL | 50 µg/mL | 100 µg/mL | 14.7 µg/mL (≈ 47.8 µM) | 8.97 µg/mL (≈ 29.1 µM) | 
5 | Fc1ccc(CCN2COc3c(cc(Br)c4cccnc34)C2)cc1 | 25 µg/mL |  |  |  |  |  | 
6 | Cc1ccc(CCN2COc3c(cc(F)c4cccnc34)C2)cc1 | 25 µg/mL |  |  |  |  |  | 
7 | FC(F)(F)Oc1ccc(CN2COc3c(cc(Br)c4cccnc34)C2)cc1 | > 100 µg/mL |  |  |  |  |  | 
8 | Clc1cc2c(c3ncccc13)OCN(CCCCc1ccccc1)C2 | 12.5 µg/mL | 3.12 µg/mL | 100 µg/mL | 100 µg/mL | > 50 µg/mL | 33.8 µg/mL (≈ 95.9 µM) | 
9 | Brc1cc2c(c3ncccc13)OCN(CCc1ccccc1)C2 | 25 µg/mL |  |  |  |  |  | 
10 | Fc1cc2c(c3ncccc13)OCN(CCc1cccc(Cl)c1)C2 | 6.25 µg/mL | 6.25 µg/mL | 50 µg/mL | 100 µg/mL | > 50 µg/mL | 42.3 µg/mL (≈ 123 µM) | MIC (Acinetobacter baumannii [2]): 12.5 µg/mL; MIC (Escherichia coli [4]): 50 µg/mL; MIC (Escherichia coli [6]): 50 µg/mL; MIC (Acinetobacter baumannii [7]): 6.25 µg/mL; MIC (Escherichia coli [8]): 50 µg/mL; MIC (Acinetobacter baumannii [9]): 25 µg/mL; MIC (Escherichia coli [10]): 50 µg/mL; MIC (Acinetobacter baumannii [11]): 25 µg/mL; MIC (Escherichia coli [12]): 25 µg/mL; MIC (Escherichia coli [13]): 50 µg/mL; MIC (Acinetobacter baumannii [14]): 25 µg/mL
11 | Fc1cc2c(c3ncccc13)OCN(CCc1ccc(Br)cc1)C2 | 6.25 µg/mL | 3.12 µg/mL | 100 µg/mL | 100 µg/mL | > 50 µg/mL | 44.9 µg/mL (≈ 116 µM) | MIC (Acinetobacter baumannii [2]): 25 µg/mL; MIC (Escherichia coli [4]): 50 µg/mL; MIC (Escherichia coli [6]): 50 µg/mL; MIC (Acinetobacter baumannii [7]): 12.5 µg/mL; MIC (Escherichia coli [8]): 50 µg/mL; MIC (Acinetobacter baumannii [9]): 12.5 µg/mL; MIC (Escherichia coli [10]): 50 µg/mL; MIC (Acinetobacter baumannii [11]): 3.12 µg/mL; MIC (Escherichia coli [12]): 25 µg/mL; MIC (Escherichia coli [13]): 50 µg/mL; MIC (Acinetobacter baumannii [14]): 6.25 µg/mL
12 | Fc1cc2c(c3ncccc13)OCN(CCOc1ccccc1)C2 | 25 µg/mL |  |  |  |  |  | 
13 | Fc1cc2c(c3ncccc13)OCN(CCOc1ccc(Cl)cc1)C2 | 12.5 µg/mL | 12.5 µg/mL | 50 µg/mL | 100 µg/mL | > 50 µg/mL | 22.3 µg/mL (≈ 62 µM) | 
14 | Brc1ccc(CCN2COc3c(cc(Br)c4cccnc34)C2)cc1 | 50 µg/mL |  |  |  |  |  | 
15 | Fc1cc2c(c3ncccc13)OCN(Cc1ccc(OC(F)(F)F)cc1)C2 | 25 µg/mL |  |  |  |  |  | 
16 | Clc1ccc(OCCN2COc3c(cc(Cl)c4cccnc34)C2)cc1 | 25 µg/mL |  |  |  |  |  | 
17 | Fc1ccc(CCN2COc3c(cc(F)c4cccnc34)C2)cc1 | 12.5 µg/mL | 12.5 µg/mL | 100 µg/mL | 100 µg/mL | 27.7 µg/mL (≈ 84.8 µM) | 15.8 µg/mL (≈ 48.3 µM) | 

Row | Structure (SMILES) | MIC (Escherichia coli [1]) | MIC (Acinetobacter baumannii [5]) | MIC (Klebsiella pneumoniae) | MIC (Pseudomonas aeruginosa) | IC50 at 48 h [3] | IC50 at 48 h [15] | further results
18 | Clc1cccc(CN2COc3c(cc(Br)c4cccnc34)C2)c1 | 25 µg/mL |  |  |  |  |  | 
19 | Clc1cc2c(c3ncccc13)OCN(CCOc1ccccc1)C2 | 25 µg/mL |  |  |  |  |  | 
20 | Fc1cccc(CCN2COc3c(cc(F)c4cccnc34)C2)c1 | 3.12 µg/mL | 3.12 µg/mL | 25 µg/mL | 25 µg/mL | 21.3 µg/mL (≈ 65.2 µM) | 29.4 µg/mL (≈ 90.2 µM) | 
21 | Fc1cc2c(c3ncccc13)OCN(CCCCc1ccccc1)C2 | 6.25 µg/mL | 6.25 µg/mL | > 100 µg/mL | 100 µg/mL | 36.1 µg/mL (≈ 107 µM) | 29.3 µg/mL (≈ 87.1 µM) | 
22 | Cc1ccc(CCN2COc3c(cc(Cl)c4cccnc34)C2)cc1 | 50 µg/mL |  |  |  |  |  | 
23 | Cc1ccc(CCN2COc3c(cc(Br)c4cccnc34)C2)cc1 | 50 µg/mL |  |  |  |  |  | 
24 | COc1ccc(CCN2COc3c(cc(Br)c4cccnc34)C2)cc1OC | > 100 µg/mL |  |  |  |  |  | 
25 | COc1ccc(CCN2COc3c(cc(Cl)c4cccnc34)C2)cc1OC | 25 µg/mL |  |  |  |  |  | 
26 | Clc1cc2c(c3ncccc13)OCN(CCc1cccc(Br)c1)C2 | > 100 µg/mL |  |  |  |  |  | 
27 | Fc1cc2c(c3ncccc13)OCN(CCCc1ccccc1)C2 | 6.25 µg/mL | 6.25 µg/mL | 50 µg/mL | 100 µg/mL | 13.6 µg/mL (≈ 42.1 µM) | 26 µg/mL (≈ 80.5 µM) | 
28 | Clc1cc2c(c3ncccc13)OCN(CCc1ccc(Br)cc1)C2 | 12.5 µg/mL | 6.25 µg/mL | > 100 µg/mL | 100 µg/mL | > 50 µg/mL | 35.2 µg/mL (≈ 87.3 µM) | 
29 | Brc1cc2c(c3ncccc13)OCN(Cc1ccccc1)C2 | 25 µg/mL |  |  |  |  |  | 
30 | Oc1ccc(CCN2COc3c(cc(F)c4cccnc34)C2)cc1 | > 100 µg/mL |  |  |  |  |  | 
31 | Fc1cc2c(c3ncccc13)OCN(Cc1ccc(C(F)(F)F)cc1)C2 | 12.5 µg/mL | 12.5 µg/mL | 100 µg/mL | 100 µg/mL | 46.1 µg/mL (≈ 127 µM) | 7.93 µg/mL (≈ 21.9 µM) | 
32 | Brc1cc2c(c3ncccc13)OCN(CCCCc1ccccc1)C2 | 25 µg/mL |  |  |  |  |  | 
33 | Clc1ccc(OCCN2COc3c(cc(Br)c4cccnc34)C2)cc1 | 50 µg/mL |  |  |  |  |  | 
34 | Brc1cc2c(c3ncccc13)OCN(CCCc1ccccc1)C2 | 50 µg/mL |  |  |  |  |  | 

More lines, main results first:

Row | MIC (Escherichia coli [1]) | MIC (Acinetobacter baumannii [5]) | MIC (Klebsiella pneumoniae) | MIC (Pseudomonas aeruginosa) | Structure (SMILES) | IC50 at 48 h [3] | IC50 at 48 h [15] | further results
35 | > 100 µg/mL |  |  |  | Clc1ccc(CN2COc3c(cc(Br)c4cccnc34)C2)cc1 |  |  | 
36 | 12.5 µg/mL | 6.25 µg/mL | 50 µg/mL | 100 µg/mL | Fc1ccc(CCN2COc3c(cc(Cl)c4cccnc34)C2)cc1 | 40.1 µg/mL (≈ 117 µM) | 17.8 µg/mL (≈ 52.1 µM) | 
37 | 25 µg/mL |  |  |  | Fc1cc2c(c3ncccc13)OCN(Cc1ccccc1)C2 |  |  | 
38 | 25 µg/mL |  |  |  | Fc1cc(CN2COc3c(cc(Cl)c4cccnc34)C2)cc(F)c1F |  |  | 
39 | 12.5 µg/mL | 12.5 µg/mL | 50 µg/mL | 100 µg/mL | Clc1cccc(CN2COc3c(cc(Cl)c4cccnc34)C2)c1 | > 50 µg/mL | 23.9 µg/mL (≈ 69.1 µM) | 
40 | 25 µg/mL |  |  |  | Fc1cc(CN2COc3c(cc(Br)c4cccnc34)C2)cc(F)c1F |  |  | 
41 | 50 µg/mL |  |  |  | FC(F)(F)Oc1ccc(CN2COc3c(cc(Cl)c4cccnc34)C2)cc1 |  |  | 
42 | 25 µg/mL |  |  |  | FC(F)(F)c1ccc(CN2COc3c(cc(Cl)c4cccnc34)C2)cc1 |  |  | 
43 | 6.25 µg/mL | 6.25 µg/mL | 50 µg/mL | 50 µg/mL | Fc1cc2c(c3ncccc13)OCN(Cc1cccc(Cl)c1)C2 | 34 µg/mL (≈ 103 µM) | 19 µg/mL (≈ 57.7 µM) | 
44 | 25 µg/mL |  |  |  | Fc1ccc(CN2COc3c(cc(Br)c4cccnc34)C2)c(F)c1 |  |  | 
45 | 25 µg/mL |  |  |  | Fc1ccc(CN2COc3c(cc(F)c4cccnc34)C2)c(F)c1 |  |  | 
46 | 25 µg/mL |  |  |  | Fc1cc(CN2COc3c(cc(F)c4cccnc34)C2)cc(F)c1F |  |  | 
47 | 12.5 µg/mL | 6.12 µg/mL | > 100 µg/mL | 100 µg/mL | Clc1ccc(CCN2COc3c(cc(Cl)c4cccnc34)C2)cc1 | > 50 µg/mL | 39.7 µg/mL (≈ 110 µM) | 
48 | 12.5 µg/mL | 6.25 µg/mL | > 100 µg/mL | 100 µg/mL | Clc1cc2c(c3ncccc13)OCN(Cc1ccccc1)C2 | > 50 µg/mL | 33.8 µg/mL (≈ 109 µM) | 

— ChEMBL document CHEMBL6153051, “Synthesis, biological evaluation and validation of IMB-881 derivatives as anti-Gram-negative bacterial agents” (Bioorg Med Chem, 2025)
